Reference: patent US12668584B2, “Heterocyclic compounds as kinase inhibitors for therapeutic uses” (National Health Research Institutes, priority 2019, dated 2026)

What was measured:
[1] = tested on: BaF3-CSF1R-1600 cells (express ETV6-CSF1R fusion protein); experiment: MTS cell viability assay, BaF3-CSF1R-1600; type: cell-based; conditions: 72 h, read-out: Cellular Proliferation Assay BaF3-CSF1R GI50
Method in brief: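 Cells seeded 16 h beforehand (10000 M-NFS-60 or 8000 BaF3-CSF1R-1600 per well), then exposed 72 h to test compounds in RPMI1640 with 10% FBS at 37 °C. Viability read by MTS absorbance at 490 nm; GI50 is the concentration giving 50% viability reduction versus DMSO vehicle.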

[2] = molecular target: CSF1R (Homo sapiens, UniProt P07333); experiment: HotSpot kinase profiling, CSF1R; type: biochemical; conditions: HotSpot assay, 10 μM ATP
Procedure: (§1) A study was conducted to determine kinase selectivity of compounds 27 and 67. More specifically, each compound was tested for inhibitory activity of CSF1R kinase, as compared to that of seven other kinases, i.e., Aurora A, Aurora B, tyrosine-protein kinase Kit (c-Kit), fms-like tyrosine kinase 3 (FLT3), platelet-derived growth factor receptor (PDGFR) A, PDGFR B, and discoidin domain receptor tyrosine kinase 1 (DDR1).
(§2) In vitro profiling of the kinase panel was performed at Reaction Biology Corporation (www.reactionbiology.com, Malvern, PA) using the “HotSpot” assay platform. Briefly, specific kinase/substrate pairs along with required cofactors were prepared in a reaction buffer containing 20 mM Hepes pH 7.5, 10 mM MgCl2, 1 mM EGTA, 0.02% Brij35, 0.02 mg/ml BSA, 0.1 mM NA3VO4, 2 mM DTT, and 1% DMSO. Compound 27 or 67 was added. 20 minutes later, a mixture of ATP (Sigma, St. Louis MO) and ^33P ATP (Perkin Elmer, Waltham MA) was added to the resulting reaction solution to give a final concentration of 10 μM. The reaction was carried out at room temperature for 120 min., followed by spotting the reaction solution onto P81 ion exchange filter paper (Whatman Inc., Piscataway, NJ). Unbound phosphate was removed by extensive washing filters in 0.75% phosphoric acid. […] Selectivity, expressed as an IC50 ratio, was determined by dividing the IC50 value of a kinase, e.g., Aurora A, by that of CSF1R.

[3] = molecular target: T1, Aurora A (Homo sapiens, UniProt O14965); experiment: HotSpot kinase profiling, Aurora A; type: biochemical; conditions: HotSpot assay, 10 μM ATP; IC50 of kinase divided by that of CSF1R
T1 sequence (O14965 1-403): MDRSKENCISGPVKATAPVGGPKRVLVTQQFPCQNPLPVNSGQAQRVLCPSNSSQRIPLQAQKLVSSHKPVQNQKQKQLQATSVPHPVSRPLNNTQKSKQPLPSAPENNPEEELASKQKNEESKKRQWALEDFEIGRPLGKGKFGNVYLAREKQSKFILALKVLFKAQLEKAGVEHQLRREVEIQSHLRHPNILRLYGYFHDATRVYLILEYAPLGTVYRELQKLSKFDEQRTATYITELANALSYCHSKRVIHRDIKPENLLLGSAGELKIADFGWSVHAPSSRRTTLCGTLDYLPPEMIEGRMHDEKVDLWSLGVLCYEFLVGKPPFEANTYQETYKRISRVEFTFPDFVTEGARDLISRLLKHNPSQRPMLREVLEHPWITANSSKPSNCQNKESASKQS
Procedure: as §1, §2

[4] = molecular target: Aurora B (Homo sapiens, UniProt Q96GD4); experiment: HotSpot kinase profiling, Aurora B; type: biochemical; conditions: HotSpot assay, 10 μM ATP; IC50 of kinase divided by that of CSF1R
Procedure: In vitro profiling of the kinase panel was performed at Reaction Biology Corporation (www.reactionbiology.com, Malvern, PA) using the “HotSpot” assay platform. Briefly, specific kinase/substrate pairs along with required cofactors were prepared in a reaction buffer containing 20 mM Hepes pH 7.5, 10 mM MgCl2, 1 mM EGTA, 0.02% Brij35, 0.02 mg/ml BSA, 0.1 mM NA3VO4, 2 mM DTT, and 1% DMSO. […] 20 minutes later, a mixture of ATP (Sigma, St. Louis MO) and ^33P ATP (Perkin Elmer, Waltham MA) was added to the resulting reaction solution to give a final concentration of 10 μM. The reaction was carried out at room temperature for 120 min., followed by spotting the reaction solution onto P81 ion exchange filter paper (Whatman Inc., Piscataway, NJ). Unbound phosphate was removed by extensive washing filters in 0.75% phosphoric acid. […] Selectivity, expressed as an IC50 ratio, was determined by dividing the IC50 value of a kinase, e.g., Aurora A, by that of CSF1R.

[5] = molecular target: tyrosine-protein kinase Kit (c-Kit) (Homo sapiens, UniProt P10721); experiment: HotSpot kinase profiling, c-Kit; type: biochemical; conditions: HotSpot assay, 10 μM ATP; IC50 of kinase divided by that of CSF1R
Procedure: as §1, §2

[6] = molecular target: platelet-derived growth factor receptor (PDGFR) A (Homo sapiens, UniProt P16234); experiment: HotSpot kinase profiling, PDGFR A; type: biochemical; conditions: HotSpot assay, 10 μM ATP; IC50 of kinase divided by that of CSF1R
Procedure: as §1, §2

Sequence of Aurora B (Q96GD4 whole entry): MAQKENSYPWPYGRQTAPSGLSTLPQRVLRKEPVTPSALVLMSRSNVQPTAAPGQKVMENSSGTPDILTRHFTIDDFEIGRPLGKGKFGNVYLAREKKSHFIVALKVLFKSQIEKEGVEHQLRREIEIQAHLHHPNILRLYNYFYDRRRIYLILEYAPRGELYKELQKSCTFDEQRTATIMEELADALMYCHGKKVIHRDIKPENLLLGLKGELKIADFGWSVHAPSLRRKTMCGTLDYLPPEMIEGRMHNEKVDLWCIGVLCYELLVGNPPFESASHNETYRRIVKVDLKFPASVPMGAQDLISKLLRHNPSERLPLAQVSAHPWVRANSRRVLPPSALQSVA
Sequence of tyrosine-protein kinase Kit (c-Kit) (P10721 26-976): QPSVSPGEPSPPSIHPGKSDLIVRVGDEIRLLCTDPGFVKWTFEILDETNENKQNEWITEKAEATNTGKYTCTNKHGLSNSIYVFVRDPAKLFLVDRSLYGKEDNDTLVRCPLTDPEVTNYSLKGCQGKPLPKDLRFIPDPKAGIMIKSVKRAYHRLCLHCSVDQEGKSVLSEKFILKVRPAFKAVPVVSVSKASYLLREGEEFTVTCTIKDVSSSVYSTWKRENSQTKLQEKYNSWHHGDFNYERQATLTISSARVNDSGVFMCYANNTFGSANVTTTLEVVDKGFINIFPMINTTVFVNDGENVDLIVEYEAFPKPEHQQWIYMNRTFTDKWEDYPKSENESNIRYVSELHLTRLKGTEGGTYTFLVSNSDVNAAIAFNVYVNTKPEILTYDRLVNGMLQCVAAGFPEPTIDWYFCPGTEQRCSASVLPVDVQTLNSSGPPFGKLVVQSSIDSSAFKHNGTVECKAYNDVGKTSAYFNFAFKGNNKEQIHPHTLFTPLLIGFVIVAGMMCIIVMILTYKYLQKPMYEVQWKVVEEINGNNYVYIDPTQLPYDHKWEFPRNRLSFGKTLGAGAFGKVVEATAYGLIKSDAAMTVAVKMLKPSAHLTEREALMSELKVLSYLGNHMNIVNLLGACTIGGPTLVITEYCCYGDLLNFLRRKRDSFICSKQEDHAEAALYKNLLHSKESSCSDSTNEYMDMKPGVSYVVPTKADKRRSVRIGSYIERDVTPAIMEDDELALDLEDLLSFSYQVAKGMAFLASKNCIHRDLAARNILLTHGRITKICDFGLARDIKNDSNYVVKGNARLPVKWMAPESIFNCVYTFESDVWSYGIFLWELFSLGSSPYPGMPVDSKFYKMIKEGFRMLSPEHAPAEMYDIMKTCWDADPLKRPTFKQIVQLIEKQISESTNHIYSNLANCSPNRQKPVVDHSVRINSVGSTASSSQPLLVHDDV
Sequence of platelet-derived growth factor receptor (PDGFR) A (P16234 24-1089): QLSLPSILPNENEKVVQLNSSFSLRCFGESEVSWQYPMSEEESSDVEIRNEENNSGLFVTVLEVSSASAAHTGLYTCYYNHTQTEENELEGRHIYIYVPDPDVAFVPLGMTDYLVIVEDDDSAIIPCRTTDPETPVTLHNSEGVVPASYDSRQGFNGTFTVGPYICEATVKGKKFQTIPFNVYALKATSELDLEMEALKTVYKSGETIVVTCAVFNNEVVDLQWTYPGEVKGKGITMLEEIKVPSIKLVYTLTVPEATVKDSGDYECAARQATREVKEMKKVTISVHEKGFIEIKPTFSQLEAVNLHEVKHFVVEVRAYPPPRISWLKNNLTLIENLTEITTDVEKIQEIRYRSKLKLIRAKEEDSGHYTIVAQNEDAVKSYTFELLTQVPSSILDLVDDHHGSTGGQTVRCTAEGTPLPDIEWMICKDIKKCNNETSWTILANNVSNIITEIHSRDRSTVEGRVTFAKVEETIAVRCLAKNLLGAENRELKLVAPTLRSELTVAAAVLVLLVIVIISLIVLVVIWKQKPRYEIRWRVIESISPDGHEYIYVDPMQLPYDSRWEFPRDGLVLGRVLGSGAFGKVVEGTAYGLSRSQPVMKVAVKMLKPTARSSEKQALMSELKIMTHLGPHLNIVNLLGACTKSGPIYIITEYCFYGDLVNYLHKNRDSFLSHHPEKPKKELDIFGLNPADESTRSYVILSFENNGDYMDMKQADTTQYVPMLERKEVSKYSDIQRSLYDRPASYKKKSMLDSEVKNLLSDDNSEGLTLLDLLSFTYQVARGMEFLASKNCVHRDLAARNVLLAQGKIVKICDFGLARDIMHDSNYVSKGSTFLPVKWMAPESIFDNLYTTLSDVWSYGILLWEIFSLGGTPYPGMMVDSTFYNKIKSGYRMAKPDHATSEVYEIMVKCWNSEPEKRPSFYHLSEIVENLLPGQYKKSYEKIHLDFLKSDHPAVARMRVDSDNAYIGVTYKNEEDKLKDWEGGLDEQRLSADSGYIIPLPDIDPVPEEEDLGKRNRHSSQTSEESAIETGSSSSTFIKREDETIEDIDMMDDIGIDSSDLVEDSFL
Sequence of CSF1R (P07333 20-972): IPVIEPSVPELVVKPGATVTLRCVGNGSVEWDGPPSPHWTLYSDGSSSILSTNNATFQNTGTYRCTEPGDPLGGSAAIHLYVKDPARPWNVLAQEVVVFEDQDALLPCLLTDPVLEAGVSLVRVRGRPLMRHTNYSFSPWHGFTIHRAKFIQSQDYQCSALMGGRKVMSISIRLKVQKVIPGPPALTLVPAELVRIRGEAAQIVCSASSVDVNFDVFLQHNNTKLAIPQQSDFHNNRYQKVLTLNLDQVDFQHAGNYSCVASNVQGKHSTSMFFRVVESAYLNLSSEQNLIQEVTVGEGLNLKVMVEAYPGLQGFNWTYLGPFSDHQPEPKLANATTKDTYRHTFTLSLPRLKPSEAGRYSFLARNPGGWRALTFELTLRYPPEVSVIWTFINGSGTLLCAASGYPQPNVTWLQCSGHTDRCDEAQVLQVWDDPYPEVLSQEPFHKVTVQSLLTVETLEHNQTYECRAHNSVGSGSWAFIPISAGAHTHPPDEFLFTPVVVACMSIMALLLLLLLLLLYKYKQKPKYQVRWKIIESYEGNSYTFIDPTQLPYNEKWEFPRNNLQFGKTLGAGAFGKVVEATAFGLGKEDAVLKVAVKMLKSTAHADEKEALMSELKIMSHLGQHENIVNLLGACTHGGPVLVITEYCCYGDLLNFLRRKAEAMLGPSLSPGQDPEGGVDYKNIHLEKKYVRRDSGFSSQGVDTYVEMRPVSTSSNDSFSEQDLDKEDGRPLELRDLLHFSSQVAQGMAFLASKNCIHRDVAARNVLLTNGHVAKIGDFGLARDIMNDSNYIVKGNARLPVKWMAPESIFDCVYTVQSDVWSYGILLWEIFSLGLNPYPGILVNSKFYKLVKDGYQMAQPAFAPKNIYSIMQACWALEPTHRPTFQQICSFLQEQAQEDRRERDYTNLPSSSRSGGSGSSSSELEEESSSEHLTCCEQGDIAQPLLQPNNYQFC

SMILES	GI50 [1]	IC50 [2]	IC50 ratio Aurora A / CSF1R [3]	IC50 ratio Aurora B / CSF1R [4]	IC50 ratio c-Kit / CSF1R [5]	IC50 ratio PDGFR A / CSF1R [6]
CN(C)c1ccc2c(Oc3ccc(NC(=O)NCc4ccc(C(F)(F)F)nc4)cc3)ncnc2c1 [Compound 27, 1-(4-((7-(dimethylamino)quinazolin-4-yl)oxy)phenyl)-3-((6-(trifluoromethyl)pyridin-3-yl)methyl)urea]	20 to 100 nM	0.534 nM	++++ (++++: IC50 ratio > 1000)	+++ (+++: 1000 > IC50 ratio > 100)	++ (++: 100 > IC50 ratio > 10)	++ (++: 100 > IC50 ratio > 10)
CN(C)c1ccc2c(Oc3ccc4c(ccn4C(=O)NCc4ccc(C(F)(F)F)nc4)c3)ncnc2c1 [Compound 67, 5-((7-(dimethylamino)quinazolin-4-yl)oxy)-N-((6-(trifluoromethyl)pyridin-3-yl)methyl)-1H-indole-1-carboxamide]	20 to 100 nM	5.69 nM	+++ (+++: 1000 > IC50 ratio > 100)	+++ (+++: 1000 > IC50 ratio > 100)	+++ (+++: 1000 > IC50 ratio > 100)	++ (++: 100 > IC50 ratio > 10)
